Read-outs that look alike come from different tables or passages of the source.
Key:
LNcap cells = assay: Inhibitory effect on proliferation of LNcap cells (CCK-8, 72 h); format: cell-based; conditions: Homo sapiens
Method: A dish of LNcap cells (human prostate cancer cells with PTEN deficiency) growing at log phase and in good conditions were taken and digested for 3 min by using 1 mL of pancreatin, then the mixture was added with 4 mL of complete culture medium to terminate digestion, and the cells were added to a centrifuge tube. 20 μL of cells were taken and counted, the required number of cells (mL) was pipetted and centrifuged at 1200 rpm for 5 min, the supernatant was discarded, and an appropriate amount of plating medium (RPMI medium+5% FBS+1% sodium pyruvate+1% glutamine) was added to adjust the cell density to 3×10^4 cells/mL. The cells were seeded on a 96-well plate at 100 μL/well using a multi-channel pipette and cultured in a cell incubator at 37° C., 5% CO2 and saturated humidity. After incubation overnight, compounds were loaded using a nanoliter pipettor, 2 duplicate wells were set for each concentration, and cells without compound were used as negative controls. After 72 h, CCK-8 was added at 10 μL/well for incubation for 4 h, then absorbance was measured at 450 nm with an Envision plate reader, and inhibition rate was calculated. Inhibition rate (%)=(mean value of negative control group−mean value of experimental group)/(mean value of negative control group−mean value of blank group)×100%. A dose-response curve was fitted by four-parameter analysis, with the logarithm of compound concentration as abscissa and inhibition rate as ordinate, so that IC50 was calculated.

AKT1 (S473) = target: T1, AKT1 (S473) (Homo sapiens, UniProt P31749); assay: Inhibitory effect on phosphorylation of LNcap cells AKT1 (S473); format: cell-based; conditions: 1 h incubation
T1 construct: endogenous in cells; host or cells: LNcap cells
Method: LNcap cells AKT1 (S473) growing at log phase were taken, digested with 1 mL of pancreatin for 3 min, and added with 4 mL of complete medium to terminate digestion. The cells were added to a centrifuge tube. 20 μL of cells were taken and counted, the required number of cells (mL) was taken and centrifuged at 1200 rpm for 5 min, and a plating medium (2% FBS+phenol-free red 1640 base medium+1% sodium pyruvate+1% glutamine) was added to adjust the cell density to about 1×10E6 cells/mL. The cells were plated (96 wells) at the above cell density (100 μL/well), and cultured in a cell incubator at 37° C., 5% CO2 overnight; the next day, according to the plate distribution, the corresponding compound was sprayed using a nanoliter pipettor and incubated for 1 h at 37° C. in a cell incubator containing 5% CO2; the supernatant was discarded, and the plate was added with 40 μL of lysis buffer (1×) containing blocking buffer and incubated by shaking at room temperature for 30 min. After the mixture was mixed, 16 μL of lysate was transferred to another 384-well small-volume white plate. The plate was added with 4 μL of pre-mixed antibody (v/v) in assay buffer, covered, centrifuged to mix well, and incubated overnight at room temperature. The 665 nm/620 nm signal value was detected using a PE Envision multi-functional microplate reader, and IC50 was calculated by four-parameter fitting.

[1] = Pharmacokinetic evaluation in mice; format: in vivo; set-up: Cl: unit not given here; conditions: ICR mice; for AUC(0-inf) / AUC(0-t) / Cmax / Tmax / bioavailability / MRT last / Vd: mouse, plasma; for bioavailability: IG 10 mg/kg vs IV 1 mg/kg, read-out: Absolute bioavailability F %; for MRT last: read-out: MRT(0-t)
Method: ICR mice, weight 18-22 g, after adaption for 3-5 days, were randomly divided into 4 groups of 9 mice, each group was intragastrically (IG) administered with compound 28 or compound 30 at a dose of 10 mg/kg, or intravenously (IV) administered with compound 28 or compound 30 at a dose of 1 mg/kg.
The animals to be tested (ICR mice) were fasted for 12 h before administration and food was provided 4 h after administration, and water was freely drunk before and after the experiment and during the experiment.
After intragastric administration, about 0.1 mL of blood was taken from eye sockets at 15 min, 30 min, 1 h, 2 h, 3 h, 4 h, 6 h, 8 h, 10 h, and 24 h; after intravenous injection, about 0.1 mL of blood was taken from eye sockets at 5 min, 10 min, 30 min, 1 h, 2 h, 4 h, 6 h, 8 h, 10 h, and 24 h; each mouse was collected at 3-4 time points and 3 mice were collected at each time point, whole blood was collected, placed in centrifuge tubes containing EDTA-K2, and stored at 4° C. within 1 h, and the plasma was separated off by centrifugation at 4° C. and 4000 rpm for 10 min. All the plasma samples were collected and immediately stored at −20° C. for testing. 30 μL of the plasma sample to be tested and a standard curve sample were pipetted and added with 300 μL of acetonitrile solution containing an internal standard (20 ng/mL diazepam), shaken and mixed well for 5 min, and centrifuged at 13,000 rpm for 10 min. 80 μL of supernatant was taken and diluted with 80 μL of ultrapure water. After being mixed well, 2 μL of the resulting sample was taken for liquid chromatography-mass determination, and a chromatogram was recorded.
Oral and intravenous exposure of the compound of the present application was evaluated by in vivo pharmacokinetic experiment in mice.

[2] = LNcap cells, CCK-8, read-out: LNcap cells IC50
[3] = LNCaP, read-out: LNcap cells IC50

T1 sequence (P31749 whole entry): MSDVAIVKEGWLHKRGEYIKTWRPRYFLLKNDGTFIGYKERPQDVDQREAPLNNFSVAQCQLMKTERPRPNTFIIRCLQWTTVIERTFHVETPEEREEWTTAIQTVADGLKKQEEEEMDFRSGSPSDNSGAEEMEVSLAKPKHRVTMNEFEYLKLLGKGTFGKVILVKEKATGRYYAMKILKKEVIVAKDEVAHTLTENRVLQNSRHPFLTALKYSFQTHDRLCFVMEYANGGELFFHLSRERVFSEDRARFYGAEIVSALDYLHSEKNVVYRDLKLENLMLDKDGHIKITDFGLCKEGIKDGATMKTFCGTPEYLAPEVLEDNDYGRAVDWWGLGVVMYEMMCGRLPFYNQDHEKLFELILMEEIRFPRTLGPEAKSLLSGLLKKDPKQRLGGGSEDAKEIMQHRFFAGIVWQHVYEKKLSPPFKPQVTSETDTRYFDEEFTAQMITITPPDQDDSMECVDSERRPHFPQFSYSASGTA

SMILES	IC50 (LNcap cells; [2]) [nM]	IC50 (AKT1 (S473)) [nM]	further results
CC#CC(=O)N1CCCC1c1cccc(-c2ccc3nc(-c4cccnc4N)n(-c4ccc(C5(N)CCC5)cc4)c3n2)c1 (centres unmarked) [Compound 1]	16	34	
C=CC(=O)NCc1cccc(-c2ccc3nc(-c4cccnc4N)n(-c4ccc(C5(N)CCC5)cc4)c3n2)c1 [Compound 2]	34	17	
C=CC(=O)Nc1ccc(-c2ccc3nc(-c4cccnc4N)n(-c4ccc(C5(N)CCC5)cc4)c3n2)cc1 [Compound 3]		20	IC50 (LNcap cells; [3]): 6.5 nM
Nc1ncccc1-c1nc2ccc(-c3cccc(N4CC5(CCOCC5)C4)c3)nc2n1-c1ccc(C2(N)CCC2)cc1 [Compound 6]		54	IC50 (LNcap cells; [3]): 15 nM
Nc1ncccc1-c1nc2ccc(-c3cccc(N4CCN5C(=O)CCC5C4)c3)nc2n1-c1ccc(C2(N)CCC2)cc1 (centres unmarked) [Compound 9]	24	16	
CC1CN(C2COC2)CCN1c1cccc(-c2ccc3nc(-c4cccnc4N)n(-c4ccc(C5(N)CCC5)cc4)c3n2)c1 (centres unmarked) [Compound 10]		47	IC50 (LNcap cells; [3]): 21 nM
Nc1ncccc1-c1nc2ccc(-c3cccc(N4CCN(C5COC5)CC4)c3)nc2n1-c1ccc(C2(N)CCC2)cc1 [Compound 11]	12	19	
CC(=O)N1CC2(C1)CN(c1cccc(-c3ccc4nc(-c5cccnc5N)n(-c5ccc(C6(N)CCC6)cc5)c4n3)c1)C2 [Compound 16]	8.7	19	
CS(=O)(=O)N1CC2(CN(c3cccc(-c4ccc5nc(-c6cccnc6N)n(-c6ccc(C7(N)CCC7)cc6)c5n4)c3)C2)C1 [Compound 17]	12	17	
CN1CC2(CC1=O)CN(c1cccc(-c3ccc4nc(-c5cccnc5N)n(-c5ccc(C6(N)CCC6)cc5)c4n3)c1)C2 [Compound 33]	11	17	
CC(=O)N1CCC2(C1)CN(c1cccc(-c3ccc4nc(-c5cccnc5N)n(-c5ccc(C6(N)CCC6)cc5)c4n3)c1F)C2 [Compound 37]	7.6	11	
[2H]C1([2H])CC(N2CCCC2=O)CC([2H])([2H])N1c1cccc(-c2ccc3nc(-c4cccnc4N)n(-c4ccc(C5(N)CCC5)cc4)c3n2)c1F [Compound 38]	11	13	
CC1COC(=O)N1C1CCN(c2cccc(-c3ccc4nc(-c5cccnc5N)n(-c5ccc(C6(N)CCC6)cc5)c4n3)c2)CC1 (centres unmarked) [Compound 39]		42	IC50 (LNcap cells; [3]): 11 nM
Nc1ncccc1-c1nc2ccc(-c3cccc(N4CCC(N5CCCCS5(=O)=O)CC4)c3F)nc2n1-c1ccc(C2(N)CCC2)cc1 [Compound 41]	10	41	

More lines, in order of falling IC50 (LNcap cells; [2]), values ahead:

IC50 (LNcap cells; [2]) [nM]	IC50 (AKT1 (S473)) [nM]	SMILES	further results
5	12	CC(=O)N1CCC2(CC1)CN(c1cccc(-c3ccc4nc(-c5cccnc5N)n(-c5ccc(C6(N)CCC6)cc5)c4n3)c1F)C2 [Compound 35]	
4.3	11	CN(C1CCN(c2cccc(-c3ccc4nc(-c5cccnc5N)n(-c5ccc(C6(N)CCC6)cc5)c4n3)c2F)CC1)S(C)(=O)=O [Compound 32]	
3	23	Nc1ncccc1-c1nc2ccc(-c3cccc(N4CCC(N5CCCC5=O)CC4)c3)nc2n1-c1ccc(C2(N)CCC2)cc1 [Compound 21]	
2.9	25	Nc1ncccc1-c1nc2ccc(-c3cccc(N4CCC(N5CCC(F)(F)C5=O)CC4)c3)nc2n1-c1ccc(C2(N)CCC2)cc1 [Compound 34]	
2.1	7.1	[2H]C([2H])([2H])N(C(C)=O)C1CCN(c2cccc(-c3ccc4nc(-c5cccnc5N)n(-c5ccc(C6(N)CCC6)cc5)c4n3)c2F)CC1 [Compound 55]	
1.7	12	CC(=O)N1CC2(CCN(c3cccc(-c4ccc5nc(-c6cccnc6N)n(-c6ccc(C7(N)CCC7)cc6)c5n4)c3F)CC2)C1 [Compound 44]	t1/2z ([1]; IG 10 mg/kg): 3.61 h; Cl ([1]; IV 1 mg/kg): 0.206; t1/2z ([1]; IV 1 mg/kg): 1.34 h; AUC(0-inf) ([1]; po, IG 10 mg/kg): 25100 ng·h/mL; AUC(0-t) ([1]; po, IG 10 mg/kg): 25000 ng·h/mL; Cmax ([1]; po, IG 10 mg/kg): 4960 ng/mL; Tmax ([1]; po, IG 10 mg/kg): 2 h; bioavailability ([1]; po): 51.7%; MRT last ([1]; po, IG 10 mg/kg): 3.58 h; AUC(0-inf) ([1]; IV 1 mg/kg): 4840 ng·h/mL; AUC(0-t) ([1]; IV 1 mg/kg): 4840 ng·h/mL; Vd ([1]; IV 1 mg/kg): 0.398 L/kg; MRT last ([1]; IV 1 mg/kg): 0.817 h
1.7	7.7	CN1CC2(CCN(c3cccc(-c4ccc5nc(-c6cccnc6N)n(-c6ccc(C7(N)CCC7)cc6)c5n4)c3F)CC2)CC1=O [Compound 45]	t1/2z ([1]; IG 10 mg/kg): 2.06 h; Cl ([1]; IV 1 mg/kg): 0.23; t1/2z ([1]; IV 1 mg/kg): 1.159 h; AUC(0-inf) ([1]; po, IG 10 mg/kg): 14500 ng·h/mL; AUC(0-t) ([1]; po, IG 10 mg/kg): 14500 ng·h/mL; Cmax ([1]; po, IG 10 mg/kg): 4020 ng/mL; Tmax ([1]; po, IG 10 mg/kg): 0.25 h; bioavailability ([1]; po): 34.3%; MRT last ([1]; po, IG 10 mg/kg): 3.95 h; AUC(0-inf) ([1]; IV 1 mg/kg): 4340 ng·h/mL; AUC(0-t) ([1]; IV 1 mg/kg): 4240 ng·h/mL; Vd ([1]; IV 1 mg/kg): 5.42 L/kg; MRT last ([1]; IV 1 mg/kg): 1.18 h

Source: patent publication US20230357242A1, “COMPOUND AS AKT KINASE INHIBITOR” (CHIA TAI TIANQING PHARMACEUTICAL GROUP CO., LTD., priority 2020, published 2023)
